In brackets after ≈: the same amount, converted by molar mass. *1 amine or outer side, *2 acyl side, *3 side chain or, on linkers, in order; H or OH if unused. Where a SMILES comes first, the peptide text is derived from it. Bridges are numbered along the chain shown (N, C = ends). Roman numbers before positions name the chains, in order. [ ]: non-standard residue; d: D form. Actinocin(9to1) = Cc1c2oc3c(C)ccc(C(=O)[*:1])c3nc-2c(C(=O)[*:2])c(N)c1=O; NMeV = CN[C@H](C(=O)O)C(C)C; Sar = CNCC(=O)O
Assays:
Strain G393-B445 = test: Antibiotic sensitivity, paper disc-agar diffusion method; format: cell-based, Empedobacter sp.; parameters: key: S (sensitive); R (resistant); I (intermediate); conditions: nutrient agar, 2 day's incubation at 28° C., Difco discs, amount/disc per antibiotic
E. coli NIHJ = test: as above; format: cell-based; parameters: key: S (sensitive); R (resistant); I (intermediate); conditions: nutrient agar, 2 day's incubation at 28° C., Difco discs, amount/disc per antibiotic
S. aureus 209P = test: as above; format: cell-based; parameters: key: S (sensitive); R (resistant); I (intermediate); conditions: nutrient agar, 2 day's incubation at 28° C., Difco discs, amount/disc per antibiotic
[1] = tested on: Staphylococcus aureus 209P; test: MIC, serial two-fold dilution method (aerobic); format: cell-based; conditions: Staphylococcus aureus 209P; Mueller-Hinton agar; inoculum 10^4; read-out: minimum inhibitory concentration (MIC)
[2] = tested on: Staphylococcus aureus Smith; test: MIC, serial two-fold dilution method (aerobic); format: cell-based; conditions: Staphylococcus aureus Smith; Mueller-Hinton agar; inoculum 10^4; read-out: minimum inhibitory concentration (MIC)
[3] = tested on: Staphylococcus aureus #193; test: MIC, serial two-fold dilution method (aerobic); format: cell-based; conditions: Staphylococcus aureus #193; Mueller-Hinton agar; inoculum 10^4; read-out: minimum inhibitory concentration (MIC)
[4] = tested on: Staphylococcus aureus BX-1633; test: MIC, serial two-fold dilution method (aerobic); format: cell-based; conditions: BX1633; Staphylococcus aureus BX-1633; Mueller-Hinton agar; inoculum 10^4; read-out: minimum inhibitory concentration (MIC)
[5] = tested on: Staphylococcus aureus A9601; test: MIC, serial two-fold dilution method (aerobic); format: cell-based; conditions: Staphylococcus aureus A9601; Mueller-Hinton agar; inoculum 10^4; read-out: minimum inhibitory concentration (MIC)
[6] = tested on: Staphylococcus aureus A9748; test: MIC, serial two-fold dilution method (aerobic); format: cell-based; conditions: Staphylococcus aureus A9748; Mueller-Hinton agar; inoculum 10^4; read-out: minimum inhibitory concentration (MIC)
[7] = tested on: Staphylococcus aureus A9856; test: MIC, serial two-fold dilution method (aerobic); format: cell-based; conditions: Staphylococcus aureus A9856; Mueller-Hinton agar; inoculum 10^4; read-out: minimum inhibitory concentration (MIC)
[8] = tested on: Staphylococcus aureus A20239; test: MIC, serial two-fold dilution method (aerobic); format: cell-based; conditions: Staphylococcus aureus A20239; Mueller-Hinton agar; inoculum 10^4; read-out: minimum inhibitory concentration (MIC)
[9] = tested on: Staphylococcus aureus A20394; test: MIC, serial two-fold dilution method (aerobic); format: cell-based; conditions: Staphylococcus aureus A20394; Mueller-Hinton agar; inoculum 10^4; read-out: minimum inhibitory concentration (MIC)
[10] = tested on: Staphylococcus aureus A20610; test: MIC, serial two-fold dilution method (aerobic); format: cell-based; conditions: Staphylococcus aureus A20610; Mueller-Hinton agar; inoculum 10^4; read-out: minimum inhibitory concentration (MIC)
[11] = tested on: Staphylococcus aureus A20701; test: MIC, serial two-fold dilution method (aerobic); format: cell-based; conditions: Staphylococcus aureus A20701; Mueller-Hinton agar; inoculum 10^4; read-out: minimum inhibitory concentration (MIC)
[12] = tested on: Staphylococcus aureus A22421; test: MIC, serial two-fold dilution method (aerobic); format: cell-based; conditions: Staphylococcus aureus A22421; Mueller-Hinton agar; inoculum 10^4; read-out: minimum inhibitory concentration (MIC)
Sarcina lutea PCI-1001 = test: MIC, serial two-fold dilution method (aerobic); format: cell-based; conditions: Micrococcus luteus, PCI1001; Sarcina lutea PCI-1001; Mueller-Hinton agar; inoculum 10^4; read-out: minimum inhibitory concentration (MIC)
Micrococcus flavus D-12 = test: MIC, serial two-fold dilution method (aerobic); format: cell-based; conditions: D12; Micrococcus flavus D-12; Mueller-Hinton agar; inoculum 10^4; read-out: minimum inhibitory concentration (MIC)
[13] = tested on: Bacillus anthracis IID-115; test: microbe, parasite or virus in culture; format: cell-based; conditions: Bacillus anthracis, IID115, read-out: minimum inhibitory concentration (MIC)
[14] = tested on: Bacillus subtilis ATCC 6633; test: MIC, serial two-fold dilution method (aerobic); format: cell-based; conditions: ATCC6633; Bacillus subtilis ATCC 6633; Mueller-Hinton agar; inoculum 10^4; read-out: minimum inhibitory concentration (MIC)
Escherichia coli NIHJ = test: MIC, serial two-fold dilution method (aerobic); format: cell-based; conditions: Escherichia coli NIHJ; Mueller-Hinton agar; inoculum 10^4; read-out: minimum inhibitory concentration (MIC)
[15] = tested on: Klebsiella pneumoniae D-11; test: MIC, serial two-fold dilution method (aerobic); format: cell-based; conditions: D11; Klebsiella pneumoniae D-11; Mueller-Hinton agar; inoculum 10^4; read-out: minimum inhibitory concentration (MIC)
Proteus mirabilis A9554 = test: MIC, serial two-fold dilution method (aerobic); format: cell-based; conditions: Proteus mirabilis A9554; Mueller-Hinton agar; inoculum 10^4; read-out: minimum inhibitory concentration (MIC)
Proteus vulgaris A9436 = test: MIC, serial two-fold dilution method (aerobic); format: cell-based; conditions: Proteus vulgaris A9436; Mueller-Hinton agar; inoculum 10^4; read-out: minimum inhibitory concentration (MIC)
[16] = tested on: Pseudomonas aeruginosa D-113; test: MIC, serial two-fold dilution method (aerobic); format: cell-based; conditions: D113; Pseudomonas aeruginosa D-113; Mueller-Hinton agar; inoculum 10^4; read-out: minimum inhibitory concentration (MIC)

CC1(C)S[C@@H]2[C@H](NC(=O)Cc3ccccc3)C(=O)N2[C@H]1C(=O)O [Pencillin G]
Sensitivity Strain G393-B445 (Strain G393-B445): S
Sensitivity E. coli NIHJ (E. coli NIHJ): I
Sensitivity S. aureus 209P (S. aureus 209P): S

Polymyxin B
Sensitivity Strain G393-B445 (Strain G393-B445): R
Sensitivity E. coli NIHJ (E. coli NIHJ): R
Sensitivity S. aureus 209P (S. aureus 209P): R

Cc1c2oc3c(C)ccc(C(=O)N[C@@H]4C(=O)N[C@H](C(C)C)C(=O)N5CCC[C@H]5C(=O)N(C)CC(=O)N(C)[C@@H](C(C)C)C(=O)O[C@@H]4C)c3nc-2c(C(=O)N[C@@H]2C(=O)N[C@H](C(C)C)C(=O)N3CCC[C@H]3C(=O)N(C)CC(=O)N(C)[C@@H](C(C)C)C(=O)O[C@@H]2C)c(N)c1=O [Actinomycin D] (I: T[dV]P[Sar][NMeV] / II: T[dV]P[Sar][NMeV]; ester I:1-I:C, II:1-II:C; linker I:N-II:N via Actinocin(9to1))
Sensitivity Strain G393-B445 (Strain G393-B445): I
Sensitivity E. coli NIHJ (E. coli NIHJ): R
Sensitivity S. aureus 209P (S. aureus 209P): S

[H]/N=C(/N)N[C@H]1[C@H](O)[C@@H](O)[C@H](O[C@@H]2O[C@@H](C)[C@](O)(C=O)[C@H]2O[C@@H]2O[C@@H](CO)[C@H](O)[C@@H](O)[C@@H]2NC)[C@@H](N/C(N)=N\[H])[C@@H]1O [Streptomycin]
Sensitivity Strain G393-B445 (Strain G393-B445): S
Sensitivity E. coli NIHJ (E. coli NIHJ): I
Sensitivity S. aureus 209P (S. aureus 209P): I

NC[C@H]1O[C@H](O[C@H]2[C@H](O)[C@@H](O[C@H]3O[C@H](CO)[C@@H](O)[C@H](N)[C@H]3O)[C@H](N)C[C@@H]2N)[C@H](O)[C@@H](O)[C@@H]1O [Kanamycin]
MIC [1]: 0.4 µg/mL (≈ 0.826 µM)
MIC [2]: 0.4 µg/mL (≈ 0.826 µM)
MIC [3]: 0.8 µg/mL (≈ 1.65 µM)
MIC [4]: 0.8 µg/mL (≈ 1.65 µM)
MIC [5]: 0.4 µg/mL (≈ 0.826 µM)
MIC [6]: 1.6 µg/mL (≈ 3.3 µM)
MIC [7]: 0.8 µg/mL (≈ 1.65 µM)
MIC [8]: > 100 µg/mL
MIC [9]: 0.8 µg/mL (≈ 1.65 µM)
MIC [10]: 100 µg/mL (≈ 206 µM)
MIC [11]: 100 µg/mL (≈ 206 µM)
MIC [12]: > 100 µg/mL
MIC (Sarcina lutea PCI-1001): 3.1 µg/mL (≈ 6.4 µM)
MIC (Micrococcus flavus D-12): 3.1 µg/mL (≈ 6.4 µM)
MIC [13]: 0.4 µg/mL (≈ 0.826 µM)
MIC [14]: 0.2 µg/mL (≈ 0.413 µM)
MIC (Escherichia coli NIHJ): 0.8 µg/mL (≈ 1.65 µM)
MIC [15]: 0.2 µg/mL (≈ 0.413 µM)
MIC (Proteus mirabilis A9554): 0.4 µg/mL (≈ 0.826 µM)
MIC (Proteus vulgaris A9436): 0.4 µg/mL (≈ 0.826 µM)
MIC [16]: > 100 µg/mL

CN(C)[C@@H]1C(O)=C(C(N)=O)C(=O)[C@@]2(O)C(O)=C3C(=O)c4c(O)cccc4[C@@](C)(O)[C@H]3C[C@@H]12 [Tetracycline]
Sensitivity Strain G393-B445 (Strain G393-B445): S
Sensitivity E. coli NIHJ (E. coli NIHJ): S
Sensitivity S. aureus 209P (S. aureus 209P): S
